Activity calls are given as the source filed them. The calls are words filed in the database; no cut-off is given here.
Experiments:
A-375 [1] = experiment: In vivo antitumor activity against human A-375 cells xenografted in mouse model assessed as potentiation of DHCHE-mediated tumor growth inhibition under blue light 450 nm/20 mW/cm^-2 irradiation at 1 mg/kg administered intratumoral injection for 14 days; format: functional, organism-based; details: route it(Intratumoral), time 14.0 day
[2] = Toxicity in human A-375 cells xenografted in mouse model assessed as change in body weight in presence of DHCHE under blue light 450 nm/20 mW/cm^-2 irradiation at 1 mg/kg administered intratumoral injection for 14 days; format: organism-based; details: in vivo, other, 336 h, route it(Intratumoral), time 14 day
A-375 [3] = experiment: Potentiation of DHNIT-mediated apoptosis activity against human A-375 cells assessed as cell killing under blue light 450 nm/20 mW/cm^-2 irradiation at 10 uM after 30 min by CLSM imaging method; format: functional, cell-based
[4] = Toxicity in human A-375 cells xenografted in mouse model assessed as inflammation lesions in lung in presence of DHCHE under blue light 450 nm/20 mW/cm^-2 irradiation at 1 mg/kg administered intratumoral injection for 14 days by H and E staining based assay; format: organism-based; details: in vivo, other, 336 h, route it(Intratumoral), time 14 day
A-375 [5] = experiment: Potentiation of DHCHE-mediated apoptosis activity against human A-375 cells assessed as increase in Bax gene expression under blue light 450 nm/20 mW/cm^-2 irradiation at 10 uM after 10 min by quantitative reverse transcription PCR analysis; format: functional, cell-based
[6] = Photooxidative transformation of DHNIT assessed as increase in generation of NIT under blue light 450 nm/20 mW/cm^-2 irradiation at 10 uM by UV-vis absorption spectra analysis; format: functional
A-375 [7] = experiment: In vivo antitumor activity against human A-375 cells xenografted in mouse model assessed as potentiation of DHCHE-mediated anticancer activity by measuring increase in vacuole and condensed nuclei at 1 mg/kg administered intratumoral injection for 14 days by […]; format: functional, organism-based; details: route it(Intratumoral), time 14.0 day
[8] = Toxicity in human A-375 cells xenografted in mouse model assessed as inflammation lesions in liver in presence of DHCHE under blue light 450 nm/20 mW/cm^-2 irradiation at 1 mg/kg administered intratumoral injection for 14 days by H and E staining based assay; format: organism-based; details: in vivo, other, 336 h, route it(Intratumoral), time 14 day
[9] = Photooxidative transformation of DHCHE assessed as increase in generation of CHE under blue light 450 nm/20 mW/cm^-2 irradiation at 10 uM by UV-vis absorption spectra analysis; format: functional
[10] = Toxicity in human A-375 cells xenografted in mouse model assessed as inflammation lesions in spleen in presence of DHCHE under blue light 450 nm/20 mW/cm^-2 irradiation at 1 mg/kg administered intratumoral injection for 14 days by H and E staining based assay; format: organism-based; details: in vivo, other, 336 h, route it(Intratumoral), time 14 day
[11] = Toxicity in human A-375 cells xenografted in mouse model assessed as inflammation lesions in intestine in presence of DHCHE under blue light 450 nm/20 mW/cm^-2 irradiation at 1 mg/kg administered intratumoral injection for 14 days by H and E staining based assay; format: organism-based; details: in vivo, other, 336 h, route it(Intratumoral), time 14 day
[12] = Toxicity in human A-375 cells xenografted in mouse model assessed as changes in total protein in presence of DHCHE under blue light 450 nm/20 mW/cm^-2 irradiation at 1 mg/kg administered intratumoral injection for 14 days by […]; format: organism-based; details: in vivo, other, 336 h, route it(Intratumoral), time 14 day
[13] = Toxicity in human A-375 cells xenografted in mouse model assessed as changes in ALT in presence of DHCHE under blue light 450 nm/20 mW/cm^-2 irradiation at 1 mg/kg administered intratumoral injection for 14 days by […]; format: organism-based; details: in vivo, other, 336 h, route it(Intratumoral), time 14 day
A-375 [14] = experiment: Potentiation of DHCHE-mediated anticancer activity against human A-375 cells assessed as cell killing under blue light 450 nm/20 mW/cm^-2 irradiation at 10 uM after 10 min by MTT assay; format: functional, cell-based
A-375 [15] = experiment: Potentiation of DHCHE-mediated apoptosis activity against human A-375 cells assessed as increase in Caspase 3 gene expression under blue light 450 nm/20 mW/cm^-2 irradiation at 10 uM after 10 min by quantitative reverse transcription PCR analysis; format: functional, cell-based
A-375 [16] = experiment: Potentiation of DHSAN-mediated anticancer activity against human A-375 cells assessed as cell killing under blue light 450 nm/20 mW/cm^-2 irradiation at 10 uM after 10 min by MTT assay; format: functional, cell-based
A-375 [17] = experiment: Potentiation of DHNIT-mediated anticancer activity against human A-375 cells assessed as cell killing under blue light 450 nm/20 mW/cm^-2 irradiation at 10 uM after 10 min by MTT assay; format: functional, cell-based
A-375 [18] = experiment: In vivo antitumor activity against human A-375 cells xenografted in mouse model assessed as potentiation of DHCHE-mediated anticancer activity by measuring decrease in Ki-67 expression at 1 mg/kg administered intratumoral injection for 14 days by […]; format: functional, organism-based; details: route it(Intratumoral), time 14.0 day
[19] = Photooxidative transformation of DHSAN assessed as increase in generation of SAN under blue light 450 nm/20 mW/cm^-2 irradiation at 10 uM by UV-vis absorption spectra analysis; format: functional
A-375 [20] = experiment: Potentiation of DHCHE-mediated apoptosis activity against human A-375 cells assessed as decrease in Bcl2 gene expression under blue light 450 nm/20 mW/cm^-2 irradiation at 10 uM after 10 min by quantitative reverse transcription PCR analysis; format: functional, cell-based
[21] = Toxicity in human A-375 cells xenografted in mouse model assessed as inflammation lesions in heart in presence of DHCHE under blue light 450 nm/20 mW/cm^-2 irradiation at 1 mg/kg administered intratumoral injection for 14 days by H and E staining based assay; format: organism-based; details: in vivo, other, 336 h, route it(Intratumoral), time 14 day
A-375 [22] = experiment: Potentiation of DHSAN-mediated apoptosis activity against human A-375 cells assessed as cell killing under blue light 450 nm/20 mW/cm^-2 irradiation at 10 uM after 30 min by CLSM imaging method; format: functional, cell-based
[23] = Photooxidative transformation of DHCHE assessed as decrease in DHCHE peak under blue light 450 nm/20 mW/cm^-2 irradiation at 0.1 mg/ml from 0 to 20 mins by NMR spectra analysis; format: functional; details: time 0-20 min
A-375 [24] = experiment: Potentiation of DHCHE-mediated apoptosis activity against human A-375 cells assessed as cell killing under blue light 450 nm/20 mW/cm^-2 irradiation at 10 uM after 30 min by CLSM imaging method; format: functional; details: 0.5 h
[25] = Toxicity in human A-375 cells xenografted in mouse model assessed as changes in BUN in presence of DHCHE under blue light 450 nm/20 mW/cm^-2 irradiation at 1 mg/kg administered intratumoral injection for 14 days by […]; format: organism-based; details: in vivo, other, 336 h, route it(Intratumoral), time 14 day
[26] = Photooxidative transformation of DHCHE assessed as decrease in DHCHE peak under blue light 450 nm/20 mW/cm^-2 irradiation at 0.1 mg/ml by HPLC analysis (reference value: 82.7%); format: functional; design: scale not given: the % may be the effect or the level left
[27] = Toxicity in human A-375 cells xenografted in mouse model assessed as changes in AST in presence of DHCHE under blue light 450 nm/20 mW/cm^-2 irradiation at 1 mg/kg administered intratumoral injection for 14 days by […]; format: organism-based; details: in vivo, other, 336 h, route it(Intratumoral), time 14 day
[28] = Toxicity in human A-375 cells xenografted in mouse model assessed as inflammation lesions in kidney in presence of DHCHE under blue light 450 nm/20 mW/cm^-2 irradiation at 1 mg/kg administered intratumoral injection for 14 days by H and E staining based assay; format: organism-based; details: in vivo, other, 336 h, route it(Intratumoral), time 14 day
A-375 [29] = experiment: Potentiation of DHCHE-mediated apoptosis activity against human A-375 cells assessed as increase in P53 gene expression under blue light 450 nm/20 mW/cm^-2 irradiation at 10 uM after 10 min by quantitative reverse transcription PCR analysis; format: functional, cell-based
A-375 [30] = experiment: Photooxidative transformation of DHCHE in human A-375 cells assessed as increase in red fluorescence in nucleus under blue light 450 nm/20 mW/cm^-2 irradiation at 10 uM after 1 min by confocal laser scanning microscopy; format: ADME, cell-based; details: a-375, 1 min
A-375 [31] = experiment: In vivo antitumor activity against human A-375 cells xenografted in mouse model assessed as potentiation of DHCHE-mediated anticancer activity by measuring increase in caspase 3 expression at 1 mg/kg administered intratumoral injection for 14 days by […]; format: functional, organism-based; details: route it(Intratumoral), time 14.0 day
[32] = Photooxidative transformation of DHCHE assessed as decrease in DHCHE peak under blue light 450 nm/20 mW/cm^-2 irradiation at 0.1 mg/ml from 0 to 20 mins by HRMS spectra analysis; format: functional; details: time 0-20 min

Cc1cc2nc3c(=O)[nH]c(=O)nc-3n(C[C@H](O)[C@H](O)[C@H](O)CO)c2cc1C [RIBOFLAVIN]
Activity (A-375 [1]): Active
Activity [2]: Non-Toxic
Activity (A-375 [3]): Active
Activity [4]: Non-Toxic
Activity (A-375 [5]): Active
Drug metabolism [6]: Metabolite detected
Activity (A-375 [7]): Active
Activity [8]: Non-Toxic
Drug metabolism [9]: Metabolite detected
Activity [10]: Non-Toxic
Activity [11]: Non-Toxic
Activity [12]: Non-Toxic
Activity [13]: Non-Toxic
Activity (A-375 [14]): Active
Activity (A-375 [15]): Active
Activity (A-375 [16]): Active
Activity (A-375 [17]): Active
Activity (A-375 [18]): Active
Drug metabolism [19]: Metabolite detected
Activity (A-375 [20]): Active
Activity [21]: Non-Toxic
Activity (A-375 [22]): Active
Drug metabolism [23]: Metabolite detected
Activity (A-375 [24]): 61.7%
Activity [25]: Non-Toxic
Activity [26]: 11.2%
Activity [27]: Non-Toxic
Activity [28]: Non-Toxic
Activity (A-375 [29]): Active
Drug metabolism (A-375 [30]): Metabolite_Detected
Activity (A-375 [31]): Active
Drug metabolism [32]: Metabolite detected

— ChEMBL document CHEMBL5150052, “Riboflavin-Promoted In Situ Photoactivation of Dihydroalkaloid Prodrugs for Cancer Therapy” (J Med Chem, 2022)
